Results published in publication PMC9453066, “Targeted control of pneumolysin production by a mobile genetic element in Streptococcus pneumoniae” (Microbial Genomics, 2022).

Test system: ZomB
Settings: saturating ssDNA (poly(dT)); 1 mM MgCl2, 50 mM NaCl, 2 mM DTT, 20 mM Tris-Cl pH 8.0, 25 °C; 50 nM ZomB

SMILES: Nc1ncnc2c1ncn2[C@@H]1O[C@H](COP(=O)(O)OP(=O)(O)OP(=O)(O)O)[C@@H](O)[C@H]1O [ATP]
- Km: 90 µM
